Assay results reported in ChEMBL document CHEMBL3991601, “The target landscape of clinical kinase drugs” (Science, 2017).
Counter-ions that a name gives are not always drawn. Calls of active or inactive are those of the source. Cut-off read from the data, not from the text of the source, for most assays here: actives have a measured Kd and inactives only a lower limit.

Legend:
[1] = biological target: Mitogen-activated protein kinase 10 (Homo sapiens, UniProt P53779)
[2] = biological target: STE20-like serine/threonine-protein kinase (Homo sapiens, UniProt Q9H2G2)
Sequence of STE20-like serine/threonine-protein kinase (Q9H2G2 whole entry): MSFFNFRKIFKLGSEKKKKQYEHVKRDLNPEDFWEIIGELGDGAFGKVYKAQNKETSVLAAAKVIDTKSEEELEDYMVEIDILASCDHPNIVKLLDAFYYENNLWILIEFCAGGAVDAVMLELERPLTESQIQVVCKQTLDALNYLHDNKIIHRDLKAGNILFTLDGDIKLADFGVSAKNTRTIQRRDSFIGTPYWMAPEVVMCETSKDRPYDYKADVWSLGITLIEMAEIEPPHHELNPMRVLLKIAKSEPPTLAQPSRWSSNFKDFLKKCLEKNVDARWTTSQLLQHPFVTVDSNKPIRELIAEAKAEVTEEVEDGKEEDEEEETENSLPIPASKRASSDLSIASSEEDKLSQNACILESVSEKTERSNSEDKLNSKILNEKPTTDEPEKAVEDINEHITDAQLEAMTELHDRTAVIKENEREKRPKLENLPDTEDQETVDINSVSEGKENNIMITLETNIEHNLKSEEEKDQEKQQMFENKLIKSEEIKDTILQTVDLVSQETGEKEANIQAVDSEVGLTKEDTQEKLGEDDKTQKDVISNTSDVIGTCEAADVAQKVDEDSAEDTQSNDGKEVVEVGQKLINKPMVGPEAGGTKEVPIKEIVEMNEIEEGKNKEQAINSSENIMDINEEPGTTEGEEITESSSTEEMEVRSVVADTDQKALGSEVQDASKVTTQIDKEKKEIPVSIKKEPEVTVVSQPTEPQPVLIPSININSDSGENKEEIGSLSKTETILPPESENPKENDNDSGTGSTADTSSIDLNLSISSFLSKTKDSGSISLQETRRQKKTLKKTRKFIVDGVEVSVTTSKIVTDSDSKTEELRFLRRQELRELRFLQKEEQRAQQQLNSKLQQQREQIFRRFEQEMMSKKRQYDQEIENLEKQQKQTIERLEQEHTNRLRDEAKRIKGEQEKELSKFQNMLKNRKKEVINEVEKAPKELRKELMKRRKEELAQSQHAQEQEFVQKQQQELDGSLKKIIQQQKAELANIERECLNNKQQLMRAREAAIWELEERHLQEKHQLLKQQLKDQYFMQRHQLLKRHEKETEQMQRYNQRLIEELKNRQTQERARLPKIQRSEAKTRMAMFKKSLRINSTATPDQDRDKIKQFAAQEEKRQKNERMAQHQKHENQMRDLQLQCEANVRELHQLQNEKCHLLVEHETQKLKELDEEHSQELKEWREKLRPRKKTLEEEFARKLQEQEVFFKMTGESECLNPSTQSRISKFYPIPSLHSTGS

[3] = biological target: T1, Non-receptor tyrosine-protein kinase TNK1 (Homo sapiens, UniProt Q13470)
T1 sequence (Q13470 whole entry): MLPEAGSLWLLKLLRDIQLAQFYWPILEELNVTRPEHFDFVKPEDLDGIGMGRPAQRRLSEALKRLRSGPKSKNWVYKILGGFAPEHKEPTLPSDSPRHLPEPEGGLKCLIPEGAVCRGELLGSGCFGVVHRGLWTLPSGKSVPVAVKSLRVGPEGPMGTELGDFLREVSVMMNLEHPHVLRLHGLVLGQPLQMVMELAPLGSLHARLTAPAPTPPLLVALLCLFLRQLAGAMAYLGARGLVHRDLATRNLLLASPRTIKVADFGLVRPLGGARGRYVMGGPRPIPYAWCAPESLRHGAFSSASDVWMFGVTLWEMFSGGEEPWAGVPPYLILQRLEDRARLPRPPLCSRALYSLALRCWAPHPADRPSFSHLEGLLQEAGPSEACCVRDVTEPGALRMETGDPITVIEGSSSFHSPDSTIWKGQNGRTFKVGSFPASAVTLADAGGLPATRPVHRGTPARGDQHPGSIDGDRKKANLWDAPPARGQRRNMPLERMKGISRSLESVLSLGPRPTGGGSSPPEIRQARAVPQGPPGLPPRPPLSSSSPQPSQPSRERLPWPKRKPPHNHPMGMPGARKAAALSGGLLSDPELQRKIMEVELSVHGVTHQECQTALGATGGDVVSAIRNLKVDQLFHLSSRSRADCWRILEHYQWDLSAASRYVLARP

[4] = biological target: T2, Receptor-type tyrosine-protein kinase FLT3 (Homo sapiens, UniProt P36888)
T2 sequence (P36888 whole entry): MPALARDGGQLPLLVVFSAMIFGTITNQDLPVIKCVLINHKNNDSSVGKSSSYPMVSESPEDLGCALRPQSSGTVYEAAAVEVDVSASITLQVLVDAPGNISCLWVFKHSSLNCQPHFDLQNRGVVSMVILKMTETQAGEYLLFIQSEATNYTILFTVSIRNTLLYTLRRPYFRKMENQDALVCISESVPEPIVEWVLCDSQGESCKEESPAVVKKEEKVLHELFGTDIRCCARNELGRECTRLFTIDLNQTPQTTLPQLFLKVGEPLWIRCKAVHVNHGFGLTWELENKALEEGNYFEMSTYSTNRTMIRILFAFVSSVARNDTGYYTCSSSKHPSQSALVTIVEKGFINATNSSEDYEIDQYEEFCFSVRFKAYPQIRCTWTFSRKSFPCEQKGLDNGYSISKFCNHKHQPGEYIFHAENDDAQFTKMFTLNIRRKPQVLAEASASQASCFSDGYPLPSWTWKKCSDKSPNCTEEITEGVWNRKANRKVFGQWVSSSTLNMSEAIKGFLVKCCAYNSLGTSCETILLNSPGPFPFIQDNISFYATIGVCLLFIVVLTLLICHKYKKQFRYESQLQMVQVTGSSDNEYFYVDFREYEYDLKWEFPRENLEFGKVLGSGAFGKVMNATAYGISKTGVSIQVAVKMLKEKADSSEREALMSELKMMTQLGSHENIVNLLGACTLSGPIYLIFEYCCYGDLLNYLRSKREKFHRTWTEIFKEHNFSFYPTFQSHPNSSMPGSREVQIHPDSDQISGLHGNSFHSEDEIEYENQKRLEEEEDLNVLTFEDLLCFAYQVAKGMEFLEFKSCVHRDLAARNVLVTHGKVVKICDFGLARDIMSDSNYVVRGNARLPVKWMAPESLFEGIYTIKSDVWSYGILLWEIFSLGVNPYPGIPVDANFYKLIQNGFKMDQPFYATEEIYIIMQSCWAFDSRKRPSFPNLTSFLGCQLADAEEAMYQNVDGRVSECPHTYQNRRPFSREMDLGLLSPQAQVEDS

[5] = biological target: T3, ATP-dependent RNA helicase DHX30 (Homo sapiens, UniProt Q7L2E3)
T3 sequence (Q7L2E3 whole entry): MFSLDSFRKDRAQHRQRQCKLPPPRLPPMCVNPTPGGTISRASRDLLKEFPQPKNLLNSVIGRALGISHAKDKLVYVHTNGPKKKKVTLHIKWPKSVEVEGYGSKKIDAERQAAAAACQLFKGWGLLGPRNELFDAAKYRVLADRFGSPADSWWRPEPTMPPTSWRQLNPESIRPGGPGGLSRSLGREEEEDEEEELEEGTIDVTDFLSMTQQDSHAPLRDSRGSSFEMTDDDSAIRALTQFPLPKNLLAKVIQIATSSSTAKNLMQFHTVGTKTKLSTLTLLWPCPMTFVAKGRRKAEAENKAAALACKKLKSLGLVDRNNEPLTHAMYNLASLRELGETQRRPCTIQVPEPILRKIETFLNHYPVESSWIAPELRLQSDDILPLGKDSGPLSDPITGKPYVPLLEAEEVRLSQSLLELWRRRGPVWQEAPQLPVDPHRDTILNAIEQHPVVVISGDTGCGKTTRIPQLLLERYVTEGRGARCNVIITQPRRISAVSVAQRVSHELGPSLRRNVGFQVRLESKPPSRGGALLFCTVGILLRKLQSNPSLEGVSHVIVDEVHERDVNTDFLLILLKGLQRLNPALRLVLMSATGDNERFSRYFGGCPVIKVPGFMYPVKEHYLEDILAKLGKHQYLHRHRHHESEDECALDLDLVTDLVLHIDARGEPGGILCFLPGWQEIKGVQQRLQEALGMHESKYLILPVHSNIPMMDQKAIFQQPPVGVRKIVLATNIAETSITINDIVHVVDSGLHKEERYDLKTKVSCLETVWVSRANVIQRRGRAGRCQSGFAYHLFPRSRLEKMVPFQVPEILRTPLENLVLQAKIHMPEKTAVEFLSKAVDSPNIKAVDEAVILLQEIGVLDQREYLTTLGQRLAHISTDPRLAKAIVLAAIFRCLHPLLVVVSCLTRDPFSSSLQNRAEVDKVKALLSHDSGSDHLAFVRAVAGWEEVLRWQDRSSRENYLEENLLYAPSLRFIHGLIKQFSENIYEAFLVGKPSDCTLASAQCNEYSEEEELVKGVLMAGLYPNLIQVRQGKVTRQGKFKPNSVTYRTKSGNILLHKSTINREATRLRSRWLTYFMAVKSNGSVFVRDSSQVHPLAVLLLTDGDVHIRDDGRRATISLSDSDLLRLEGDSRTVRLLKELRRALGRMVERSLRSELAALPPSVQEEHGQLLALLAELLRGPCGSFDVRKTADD
Note: in the data inactive means no Kd found up to 30 µM.

Sequence of Mitogen-activated protein kinase 10 (P53779 whole entry): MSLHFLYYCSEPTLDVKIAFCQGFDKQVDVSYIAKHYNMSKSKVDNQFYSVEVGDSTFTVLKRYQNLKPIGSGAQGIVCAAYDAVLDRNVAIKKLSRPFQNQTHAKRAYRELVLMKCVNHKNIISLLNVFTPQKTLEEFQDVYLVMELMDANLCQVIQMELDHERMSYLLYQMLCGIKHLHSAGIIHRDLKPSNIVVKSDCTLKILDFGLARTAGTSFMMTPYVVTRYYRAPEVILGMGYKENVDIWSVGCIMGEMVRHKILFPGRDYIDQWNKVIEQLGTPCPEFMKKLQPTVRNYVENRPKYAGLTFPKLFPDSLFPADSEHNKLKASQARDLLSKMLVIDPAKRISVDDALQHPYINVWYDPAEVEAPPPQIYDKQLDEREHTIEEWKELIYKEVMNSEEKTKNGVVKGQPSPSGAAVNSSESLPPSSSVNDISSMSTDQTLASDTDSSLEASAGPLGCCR

Row | Compound | Kd [1] | Kd [2] | Kd [3] | Kd [4] | Kd [5]
1 | C[C@@H](Oc1cc(C(=O)Nc2ccc(C(=O)N3CCN(C)CC3)cc2)nnc1N)c1c(Cl)ccc(F)c1Cl | > 30 µM (inactive) | > 30 µM (inactive) | > 30 µM (inactive) | > 30 µM (inactive) | 
2 | C[C@H]1CNCCCN1S(=O)(=O)c1cccc2cncc(F)c12 | > 30 µM (inactive) | > 30 µM (inactive) | > 30 µM (inactive) | > 30 µM (inactive) | 
3 | CC(=O)c1cnc2ccc(-c3cc(Cl)c(O)c(Cl)c3)nc2c1N[C@H]1CC[C@H](CN(C)C)CC1 | 0.112 µM (active) | 0.113 µM (active) | 1.78 µM (active) | > 30 µM (inactive) | 0.006 µM
4 | CCNC(=O)C#Cc1ccc2c(c1)NC(=O)/C2=C(\Nc1ccc(CN(C)C)cc1)c1ccccc1 | > 30 µM (inactive) | 1.49 µM (active) | > 30 µM (inactive) | 0.148 µM (active) | 
5 | COc1cc(Nc2ncc3c(n2)-c2ccc(Cl)cc2C(c2c(F)cccc2OC)=NC3)ccc1C(=O)O [ALISERTIB] | > 30 µM (inactive) |  |  |  | > 30 µM (inactive)
6 | Cc1nc(NC(=O)N2CCC[C@H]2C(N)=O)sc1-c1ccnc(C(C)(C)C(F)(F)F)c1 [ALPELISIB] | > 30 µM (inactive) | > 30 µM (inactive) | > 30 µM (inactive) | > 30 µM (inactive) | 
7 | O=C(Nc1c[nH]nc1-c1nc2cc(CN3CCOCC3)ccc2[nH]1)NC1CC1 [AT-9283] | 0.358 µM (active) | 0.402 µM (active) |  |  | > 30 µM (inactive)
8 | CNC(=O)c1ccccc1Sc1ccc2c(/C=C/c3ccccn3)n[nH]c2c1 [AXITINIB] |  |  |  |  | > 30 µM (inactive)
9 | COc1cc([C@@H]2c3cc4c(cc3[C@H](O)[C@H]3COC(=O)[C@@H]23)OCO4)cc(OC)c1OC [AXL-1717] | > 30 µM (inactive) | > 30 µM (inactive) | > 30 µM (inactive) | > 30 µM (inactive) | 
10 | CCn1c(C(=O)N(C2CC2)C2CC2)cc2c3c(ncn3C)c(Nc3cc(C)n(C)n3)nc21 [BMS-911543] | > 30 µM (inactive) | > 30 µM (inactive) | > 30 µM (inactive) | > 30 µM (inactive) | 
11 | CCS(=O)(=O)N1CCN(c2ccc(Nc3ncc(C(N)=O)c(NC4CC4)n3)cc2)CC1 [Cerdulatinib Hydrochloride] |  | > 30 µM (inactive) | > 30 µM (inactive) | 1.5 µM (active) | > 30 µM (inactive)
12 | CC(C)(C)c1nc(-c2cccc(NS(=O)(=O)c3c(F)cccc3F)c2F)c(-c2ccnc(N)n2)s1 [DABRAFENIB] | > 30 µM (inactive) | > 30 µM (inactive) | 0.066 µM (active) |  | > 30 µM (inactive)
13 | Cc1nc2cc(-n3ncc(C(=O)c4cc5ccccc5[nH]4)c3N)ccc2[nH]1 [FGFR INHIBITOR DEBIO 1347] | > 30 µM (inactive) | > 30 µM (inactive) | > 30 µM (inactive) | > 30 µM (inactive) | 
14 | C[C@@H](Oc1cc(-n2cnc3ccc(CN4CCN(C)CC4)cc32)sc1C(N)=O)c1ccccc1C(F)(F)F [GSK-461364] |  |  |  |  | > 30 µM (inactive)
15 | CCn1cc(-c2ccnc3[nH]c(-c4cccc(CN(C)C)c4)cc23)c(-c2ccc(NC(=O)N(C)C)cc2)n1 [GSK-1070916] | > 30 µM (inactive) | > 30 µM (inactive) |  |  | > 30 µM (inactive)
16 | O=C(Nc1cc(C(F)(F)F)cc(C(F)(F)F)c1)c1cc(Cl)ccc1O [IMD-0354] | > 30 µM (inactive) | > 30 µM (inactive) | > 30 µM (inactive) |  | 
17 | CNC(=O)c1nn(C)c2c1C(C)(C)Cc1cnc(Nc3ccc(N4CCN(C)CC4)cc3)nc1-2 [MILCICLIB] |  | > 30 µM (inactive) | 5.68 µM (active) | 0.054 µM (active) | 
18 | FC(F)(F)c1ccc(/C=C/c2nc(COc3ccc(CCCCn4ccnn4)cc3)co2)cc1 [MUBRITINIB] | > 30 µM (inactive) | > 30 µM (inactive) | > 30 µM (inactive) | > 30 µM (inactive) | 
19 | COc1ncc(-c2ccc3nccc(-c4ccnnc4)c3c2)cc1NS(=O)(=O)c1ccc(F)cc1F [OMIPALISIB] | > 30 µM (inactive) | > 30 µM (inactive) | > 30 µM (inactive) | > 30 µM (inactive) | 
20 | Cc1[nH]c(/C=C2\C(=O)Nc3ccccc32)c(C)c1CCC(=O)O [ORANTINIB] |  |  |  |  | > 30 µM (inactive)
21 | NC(=O)c1c(OCc2c(F)cc(Br)cc2F)nsc1NC(=O)NCCCCN1CCCC1 [OSI-632] | > 30 µM (inactive) |  | > 30 µM (inactive) |  | > 30 µM (inactive)
22 | CCCCCCCCCCCCCCCCCCOP(=O)([O-])OC1CC[N+](C)(C)CC1 [PERIFOSINE] | > 30 µM (inactive) | > 30 µM (inactive) | > 30 µM (inactive) | > 30 µM (inactive) | 
23 | CC(=O)NCC(=O)N1[C@@H]2CC[C@H]1c1ccc(Nc3ncc(C(F)(F)F)c(NC4CCC4)n3)cc12 [PF-03814735] | > 30 µM (inactive) |  | 0.369 µM (active) |  | 
24 | CNC(=O)c1cc(Oc2ccc(NC(=O)Nc3cc(C(C)(C)C)nn3-c3ccc4ncccc4c3)c(F)c2)ccn1 [REBASTINIB] | 0.072 µM | > 30 µM (inactive) | 0.055 µM (active) |  | > 30 µM (inactive)
25 | O=C(NOCCO)c1cc(CN2OCCCC2=O)c(F)c(F)c1Nc1ccc(I)cc1F [RO-4987655] |  |  |  |  | > 30 µM (inactive)
26 | CN1CCN(CCOc2cc(OC3CCOCC3)c3c(Nc4c(Cl)ccc5c4OCO5)ncnc3c2)CC1 [SARACATINIB] | > 30 µM (inactive) |  | > 30 µM (inactive) | 0.14 µM | > 30 µM (inactive)
27 | CCS(=O)(=O)c1cccc(-c2cc(C(=O)NC3CCN(C)CC3)c(C)c3[nH]c4ncc(C)cc4c23)c1 [TAK-901] | > 30 µM (inactive) | 1.35 µM (active) | 0.558 µM | 0.554 µM | 
28 | O=C1NC(=O)[C@@H](c2cn3c4c(cccc24)CCC3)[C@@H]1c1c[nH]c2ccccc12 [TIVANTINIB] | > 30 µM (inactive) | > 30 µM (inactive) | > 30 µM (inactive) | > 30 µM (inactive) | 
